The record followed here is US20050004133A1, “Modulators of VR1 receptor” (priority 2003, published 2005).

Each structure is given as a SMILES string.

The target of this experiment is human VR1 (Homo sapiens, UniProt Q8NER1). Conditions: 50 μM capsazepine; HEK-293 clones expressing hVR1; any concentration of capsaicin.
Sequence of human VR1 (Q8NER1 whole entry): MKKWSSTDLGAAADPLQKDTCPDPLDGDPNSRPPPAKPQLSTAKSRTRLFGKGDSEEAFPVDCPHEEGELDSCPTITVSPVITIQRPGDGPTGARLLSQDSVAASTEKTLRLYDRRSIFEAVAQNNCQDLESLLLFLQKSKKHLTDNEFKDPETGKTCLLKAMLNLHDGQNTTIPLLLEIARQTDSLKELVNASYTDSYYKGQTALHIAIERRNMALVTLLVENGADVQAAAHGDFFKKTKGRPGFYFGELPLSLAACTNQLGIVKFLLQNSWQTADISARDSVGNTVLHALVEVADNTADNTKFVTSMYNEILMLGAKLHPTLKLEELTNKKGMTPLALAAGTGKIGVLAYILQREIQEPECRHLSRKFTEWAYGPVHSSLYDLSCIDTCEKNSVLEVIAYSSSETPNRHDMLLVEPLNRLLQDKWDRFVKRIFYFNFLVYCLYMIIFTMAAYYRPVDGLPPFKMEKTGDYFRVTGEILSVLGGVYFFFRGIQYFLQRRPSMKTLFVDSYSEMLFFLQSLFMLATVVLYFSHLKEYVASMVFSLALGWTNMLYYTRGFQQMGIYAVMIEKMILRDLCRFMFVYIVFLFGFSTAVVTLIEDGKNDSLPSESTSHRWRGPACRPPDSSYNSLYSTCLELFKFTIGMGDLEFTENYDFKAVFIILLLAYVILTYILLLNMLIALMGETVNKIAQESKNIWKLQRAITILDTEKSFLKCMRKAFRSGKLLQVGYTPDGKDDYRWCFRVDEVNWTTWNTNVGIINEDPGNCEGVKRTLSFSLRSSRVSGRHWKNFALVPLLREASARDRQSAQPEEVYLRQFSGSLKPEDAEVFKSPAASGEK

For `Oc1cc2c(cc1O)CN(C(=S)NCCc1ccc(Cl)cc1)CCC2` [capsazepine], the “response to capsaicin in the presence of capsazepine” value is “failed to respond to any concentration of capsaicin”.
